system: PDE4; assay: Inhibition of PDE4 activity (method of Bauer and Schwabe, microtiter plates); format: biochemical; settings: inhibitory concentration as −log IC50 (mol/l)
Description: The activity test was carried out according to the method of Bauer and Schwabe, which was adapted to microtiter plates (Naunyn-Schmiedeberg's Arch. Pharmacol. 1980, 311, 193-198). The PDE reaction takes place in the first step here. In a second step, the resulting 5′-nucleotide is cleaved by a 5′-nucloetidase of the snake venom of Crotalus atrox to the uncharged nucleoside. In the third step, the nucleoside is separated from the remaining charged substrate on ion-exchange columns. The columns are eluted directly into minivials, into which 2 ml of scintillator fluid are additionally added, for counting using 2 ml of 30 mM ammonium formate (pH 6.0).
The inhibitory values determined for the compounds according to the invention [inhibitory concentration as −log IC50 (mol/l/)] follow from the following Table A, in which the numbers of the compounds correspond to the numbers of the examples.

Compound | −log IC50
COc1cc2c(cc1OC)[C@@H]1CCCC[C@@H]1N=C2c1ccc2c(c1)OCO2 [Compound 1, (−)-cis-6-Benzo[1,3]dioxol-5-yl-8,9-dimethoxy-1,2,3,4,4a,10b-hexahydrophenanthridine] | 7.28
COc1cc2c(cc1OC)[C@@H]1CCCC[C@@H]1N=C2c1ccc2ncccc2c1 [Compound 2, (−)-cis-8,9-Dimethoxy-6-quinolin-6-yl-1,2,3,4,4a,10b-hexahydrophenanthridine] | 7.23
COc1cc2c(cc1OC)[C@@H]1CCCC[C@@H]1N=C2c1ccc2c(c1)OCCO2 [Compound 3, (−)-cis-8,9-Dimethoxy-6-(2,3-dihydrobenzo[1,4]dioxin-6-yl)-1,2,3,4,4a,10b-hexahydrophenanthridine] | 7.21
COc1cc2c(cc1OC)[C@@H]1CCCC[C@@H]1N=C2c1ccc2[nH]nnc2c1 [Compound 4, (−)-cis-6-(1H-Benzotriazol-5-yl)-8,9-dimethoxy-1,2,3,4,4a,10b-hexahydrophenanthridine] | 7.47
COc1cc2c(cc1OC)[C@@H]1CCCC[C@@H]1N=C2c1ccc2ccccc2c1 [Compound 5, (−)-cis-8,9-Dimethoxy-6-naphthalen-2-yl-1,2,3,4,4a,10b-hexahydrophenanthridine] | 7.63
COc1cc2c(cc1OC)[C@@H]1CCCC[C@@H]1N=C2c1ccc2c(c1)S(=O)(=O)c1ccccc1C2=O [Compound 6, (−)-cis-8,9-Dimethoxy-6-(10,10-dioxothioxanthen-9-on-3-yl)-1,2,3,4,4a,10b-hexahydro-phenanthridine] | 8.39
COc1cc2c(cc1OC)[C@@H]1CCCC[C@@H]1N=C2c1ccc2c(c1)C(=O)c1ccccc1-2.Cl [Compound 7, (+)-cis-8,9-Dimethoxy-6-(fluoren-9-on-2-yl)-1,2,3,4,4a,10b-hexahydrophenanthridine hydrochloride] | 7.85
COc1cc2c(cc1OC)[C@@H]1CCCC[C@@H]1N=C2c1ccc2c(c1)C(=O)c1ccccc1C2=O [Compound 8, (−)-cis-8,9-Dimethoxy-6-(anthraquinon-2-yl)-1,2,3,4,4a,10b-hexahydrophenanthridine] | 8.00
COc1cc2c(cc1OC)[C@@H]1CCCC[C@@H]1N=C2c1ccc2[nH]cnc2c1 [Compound 9, (−)-cis-6-(1H-Benzimidazol-5-yl)-8,9-dimethoxy-1,2,3,4,4a,10b-hexahydrophenanthridine] | 6.76
COc1cc2c(cc1OC)[C@@H]1CCCC[C@@H]1N=C2c1ccc2nc(C)[nH]c2c1 [Compound 10, (−)-cis-8,9-Dimethoxy-6-(2-methyl-3H-benzimidazol-5-yl)-1,2,3,4,4a,10b-hexahydrophenanthridine] | 6.83
COc1cc2c(cc1OC)[C@@H]1CCCC[C@@H]1N=C2c1ccc(OC(F)F)c2oc(C(C)C)cc12 [Compound 11, (−)-cis-6-[7-Difluoromethoxy-2-isopropylbenzofuran-4-yl]-8,9-dimethoxy-1,2,3,4,4a,10b-hexahydrophenanthridine] | 8.00

system: not given; assay: not given; settings: not given

Compound | melting point [°C]
COc1cc2c(cc1OC)[C@@H]1CCCC[C@@H]1N=C2c1ccc2[nH]nnc2c1 [Compound 4, (−)-cis-6-(1H-Benzotriazol-5-yl)-8,9-dimethoxy-1,2,3,4,4a,10b-hexahydrophenanthridine] | 213 to 214
COc1cc2c(cc1OC)[C@@H]1CCCC[C@@H]1N=C2c1ccc2c(c1)C(=O)c1ccccc1C2=O [Compound 8, (−)-cis-8,9-Dimethoxy-6-(anthraquinon-2-yl)-1,2,3,4,4a,10b-hexahydrophenanthridine] | 213 to 214.5
